Experimental data published in ChEMBL document CHEMBL3885861, “Open TG-GATES”.

Species: Rattus norvegicus
Test: Open TG-GATES - Regimen: Daily Repeat
Type: toxicity, organism-based, Sprague-Dawley
Parameters: regimen Daily Repeat, gender Male, age 6 weeks
Settings: in vivo, po, 4000 mg/kg, route gavage, dose level High; for APTT / Bas / Eos / Fbg / Hb / Ht / Lym / MCH / MCHC / MCV / Mono / Neu / PT / Plat / RBC / Ret / WBC: tissue Blood; for KIDNEY_L / KIDNEY_R / KIDNEY_TOTAL: tissue Kidney; for LIVER: tissue Liver; for A/G / ALP / ALT / AST / BUN / CRE / Ca / Cl / DBIL / GLC / IP / K / LDH / Na / PL / RALB / TBIL / TC / TG / TP / gamma-GTP: tissue Plasma

## CCO [ALCOHOL]
72 h, time 3 day
  TERMINAL_BW: 222.6 g
  APTT: 17.5 s
  Bas: 0%
  Eos: 1.4%
  Fbg: 223.4 mg/dL
  Hb: 14 g/dL
  Ht: 41.5%
  Lym: 78%
  MCH: 20.9 pg
  MCHC: 33.7%
  MCV: 62.1 fL
  Mono: 5.6%
  Neu: 15.8%
  PT: 11.3 s
  Plat: 129.6 x10_4/uL
  RBC: 669.2 x10_4/ul
  Ret: 5.5%
  WBC: 91 x10_2/uL
  KIDNEY_L: 1 g
  KIDNEY_R: 1 g
  KIDNEY_TOTAL: 2 g
  LIVER: 10.5 g
  A/G: 2.3
  ALP: 775 IU/L
  ALT: 32 IU/L
  AST: 61 IU/L
  BUN: 16.8 mg/dL
  CRE: 0.5 mg/dL
  Ca: 10.7 mg/dL
  Cl: 103.6 meq/L
  DBIL: 0.022 mg/dL
  GLC: 206 mg/dL
  IP: 8.2 mg/dL
  K: 4.7 meq/L
  LDH: 95.2 IU/L
  Na: 140 meq/L
  PL: 146.4 mg/dL
  RALB: 4 g/dL
  TBIL: 0.3 mg/dL
  TC: 77.6 mg/dL
  TG: 124.4 mg/dL
  TP: 5.7 g/dL
  gamma-GTP: 1.4 IU/L
[…], time 7 day
  TERMINAL_BW: 252.2 g
  APTT: 18.2 s
  Bas: 0%
  Eos: 1%
  Fbg: 216.8 mg/dL
  Hb: 14.1 g/dL
  Ht: 41.6%
  Lym: 71%
  MCH: 20.7 pg
  MCHC: 33.8%
  MCV: 61.1 fL
  Mono: 6.4%
  Neu: 21.8%
  PT: 11.5 s
  Plat: 110.2 x10_4/uL
  RBC: 680.2 x10_4/ul
  Ret: 5.4%
  WBC: 93.3 x10_2/uL
  KIDNEY_L: 1.1 g
  KIDNEY_R: 1.1 g
  KIDNEY_TOTAL: 2.1 g
  LIVER: 11.7 g
  A/G: 2.4
  ALP: 842.2 IU/L
  ALT: 32.6 IU/L
  AST: 63 IU/L
  BUN: 17 mg/dL
  CRE: 0.5 mg/dL
  Ca: 10.6 mg/dL
  Cl: 103.8 meq/L
  DBIL: 0 mg/dL
  GLC: 206.8 mg/dL
  IP: 8.1 mg/dL
  K: 4.4 meq/L
  LDH: 92.2 IU/L
  Na: 141.2 meq/L
  PL: 145.6 mg/dL
  RALB: 4.1 g/dL
  TBIL: 0.3 mg/dL
  TC: 68.2 mg/dL
  TG: 99.6 mg/dL
  TP: 5.9 g/dL
  gamma-GTP: 1.4 IU/L
[…], time 14 day
  TERMINAL_BW: 307.3 g
  APTT: 16.8 s
  Bas: 0%
  Eos: 0.8%
  Fbg: 217.6 mg/dL
  Hb: 15 g/dL
  Ht: 45%
  Lym: 82.8%
  MCH: 20.4 pg
  MCHC: 33.3%
  MCV: 61.2 fL
  Mono: 5%
  Neu: 11.4%
  PT: 11.5 s
  Plat: 112.1 x10_4/uL
  RBC: 737 x10_4/ul
  Ret: 4.1%
  WBC: 125 x10_2/uL
  KIDNEY_L: 1.2 g
  KIDNEY_R: 1.2 g
  KIDNEY_TOTAL: 2.5 g
  LIVER: 13.6 g
  A/G: 1.9
  ALP: 806.4 IU/L
  ALT: 37.8 IU/L
  AST: 71.4 IU/L
  BUN: 18.6 mg/dL
  CRE: 0.6 mg/dL
  Ca: 10.8 mg/dL
  Cl: 104.2 meq/L
  DBIL: 0.05 mg/dL
  GLC: 207.2 mg/dL
  IP: 7.9 mg/dL
  K: 4.5 meq/L
  LDH: 121.4 IU/L
  Na: 141.6 meq/L
  PL: 160.8 mg/dL
  RALB: 3.9 g/dL
  TBIL: 0.3 mg/dL
  TC: 78.8 mg/dL
  TG: 143 mg/dL
  TP: 6 g/dL
  gamma-GTP: 1 IU/L
[…], time 28 day
  TERMINAL_BW: 369.5 g
  APTT: 16.3 s
  Bas: 0%
  Eos: 1.6%
  Fbg: 210.6 mg/dL
  Hb: 15.5 g/dL
  Ht: 46.4%
  Lym: 70.4%
  MCH: 19.2 pg
  MCHC: 33.5%
  MCV: 57.2 fL
  Mono: 7.6%
  Neu: 20.6%
  PT: 11.4 s
  Plat: 106.5 x10_4/uL
  RBC: 813.2 x10_4/ul
  Ret: 6%
  WBC: 123.4 x10_2/uL
  KIDNEY_L: 1.3 g
  KIDNEY_R: 1.3 g
  KIDNEY_TOTAL: 2.7 g
  LIVER: 15 g
  A/G: 1.8
  ALP: 599.4 IU/L
  ALT: 34.6 IU/L
  AST: 66.6 IU/L
  BUN: 19.6 mg/dL
  CRE: 0.6 mg/dL
  Ca: 10.3 mg/dL
  Cl: 107 meq/L
  DBIL: 0.006 mg/dL
  GLC: 213.6 mg/dL
  IP: 6.2 mg/dL
  K: 4.5 meq/L
  LDH: 89.6 IU/L
  Na: 140.4 meq/L
  PL: 153.6 mg/dL
  RALB: 3.9 g/dL
  TBIL: 0.3 mg/dL
  TC: 73.2 mg/dL
  TG: 173.4 mg/dL
  TP: 6.1 g/dL
  gamma-GTP: 1.4 IU/L
